In US11447638B2, “Acetalanthraquinone derivatives useful for cellular staining” (BIOSTATUS LIMITED, priority 2016, dated 2022):

Legend:
[1] = Absorption and fluorescence spectra of compounds in PBS or HEPES; type: physicochemical; details: for fluorescence emission, 540 nm (Ex in PBS): excited at 540 nm; for fluorescence emission, 540 nm (Ex in PBS) / fluorescence emission, λ1 nm (Ex in HEPES) / fluorescence emission, λ1 nm (Ex in PBS): 20 μM; for fluorescence emission, λ1 nm (Ex in HEPES) / fluorescence emission, λ1 nm (Ex in PBS): excited at absorption peak 1 (λ1); for peak excitation wavelength: excitation wavelength used for fluorescence spectra of FIG. 1A/1B
Method: The compounds were exited at 540 nm and at the wavelength of their absorption peak 1 (λ1 nm). The far-red fluorescent DNA dye DRAQ5 was used as reference.
Compounds were dissolved in DMSO (Sigma) to 20 mM stock concentration. DRAQ5 (Biostatus Ltd) was used as a control anthraquinone agent dissolved in deionised water. Working solutions were prepared in PBS (phosphate buffered saline; Sigma) or HEPES (4-(2-hydroxyethyl)-1-piperazineethanesulfonic acid; Sigma) at 20 or 40 μM. Probe solutions (20 μM), respectively in PBS or HEPES, were pipetted into a 1 mL quartz cuvette (Thermo Fisher Scientific). After obtaining baseline spectra in relevant buffer to zero the instrument, absorbance measurements were obtained using a Beckmann Coulter DU 800 UV/Visible spectrophotometer. The excitation wavelengths were scanned from 280 to 800 nm. Fluorescent spectral scans were performed using a Perkin Elmer LS-50B Luminescence spectrophotometer. To obtain emission scans, the excitation wavelength was set accordingly to the maximum values for each agent or another designated excitation wavelength that matches typical laser lines; and the emission wavelength were scanned from 400 nm to 900 nm in 1 nm increments. A Xenon flash lamp was used as the light source, with the lamp energy set to high. For each data point ten measurements were acquired with the photomultiplier tube sensitivity set at 125.
Compounds were excited at a wavelength corresponding to the first absorbance peak 1 (FIG. 1A and FIG. 1B show absorption (line) and fluorescence (dots) spectra of compounds; both are normalised to peak value.

U-2 OS cells = experiment: Confocal laser scanning microscopy (CLSM) localisation analysis; type: cell-based, human; details: 30 min incubation, Ex 637 nm, Em >665 nm; for subcellular localisation by CLSM: FIG. 4 and 5
Method: Confocal laser scanning microscopy (CLSM) was used to analyse the localisation of compounds BST-100, BST-101 and BST-106 with the U-2 OS cells, as it permitted the acquisition of volume limited optical sections through the cell and media. Excitation (637 nm) and emission (>665 nm) values for the probe analysis were the optimal conditions. The data sets obtained were processed and assembled into a single maximum projection image.
The patterns were analysed after 30 min incubation at different z depths and eliminating the solution background. The nucleus/cytoplasm ratio was calculated to quantify the localisation of the probe per cell.
A Radiance CLSM (BioRad Microscience) was used attached to an inverted Nikon microscope. Image acquisition was performed using excitation (637 nm) and emission (>665 nm) wavelengths. The histogram plot reports the nucleus/cytoplasm index to determine DNA binding in live cells. The calibration bar represents 10 μm.
The compounds BST-108, BST-109 were analysed in the same way.

A549 cells = experiment: Flow cytometry analysis of cell uptake before/after hydrolysis; type: cell-based, human; details: 20 μM, 30 min; for % ile (25): low loader cell population
Method: Flow cytometry analysis was performed to evaluate the effect of pre-treatment with HCl to generate an active aldehyde on the cell uptake properties. A549 cells were incubated for 30 min with compounds of Formula (I) and its hydrolysed forms (20 μM) prior to analysis. The rate of uptake was tested in A549 cell culture media and in Aldefluor buffer, containing the MDR-blocker verapamil (Pearce and Bonnet 2007), to evaluate the effect in uptake with/without the Aldefluor assay system. Analysis was conducted in the viable subset of cells, corresponding to ˜95% of the total amount under investigation.
Aldefluor buffer contained verapamil vs. cell media. The cells were incubated with 20 μM of the respective AAQ/HAAQs (30 min) before analysis
Statistical analysis of A549 uptake before/after hydrolysis was also studied. Experiments were performed in cell media versus Aldefluor buffer. Data were processed using FlowJo software (Tree Star). DRAQ5 was used to set the dynamic range and as control dye and empty cells were used to determine auto-fluorescence.

A549 = experiment: MTT cellular viability (growth inhibition) assay, A549; type: cell-based; details: Homo sapiens, 0.25-100 μM, 72 h, Table 3
Method: (§1) The viability of A549 or MCF7 in response to compounds was determined using the MTT (3-(4,5-dimethylthiazolyl-2-)-2, 5-diphenyltetrazolium bromide) assay according to the protocol set out in Mosmann T., Rapid colorimetric assay for cellular growth and survival: application to proliferation and cytotoxicity assays. Journal of immunological methods 1983; 65:55-63.
(§2) Initially, cells were seeded into a rounded-bottom 96 well plate (Corning) at six different cell seeding densities (0.5×104, 1×104, 2×104, 3×104, 4×104, and 5×104) per mL of R10 media (cells/mL) in order to optimise the assay and establish the most suitable seeding assay. Concentration of 1×10^4 cells/mL was determined to be the optimum seeding density for both cell lines for 96 h total incubation. A control lane contained supplemented R10 only. The 96 well plates were incubated overnight at 37° C., 5% CO2 and 100% humidity to allow cell adhesion. Cells were then treated respectively with novel AAQs (0.25-100 μM) or growth inhibition (IC50) of compounds of the invention was studied against MCF7 and A549 cancer cell lines. Compounds were tested with a concentration range between 0.25 and 100 μM for 72 h and doxorubicin, as positive cytotoxic control, was tested in parallel at the same doses.

MCF7 = experiment: MTT cellular viability (growth inhibition) assay, MCF7; type: cell-based; details: Homo sapiens, 0.25-100 μM, 72 h, Table 3
Method: as §1, §2

[2] = test system: fixed human osteosarcoma U-2 OS cells; experiment: Labelling of fixed cells, wide-field fluorescence microscopy; type: cell-based; details: 20 μM, 1 h exposure in PBS, FIG. 2
Method: Cells were seeded in a 24 well coverslip bottomed-plate, cultured overnight in McCoys media. 24 or 48 hours later the cells were washed gently with 3×2 mL PBS per well. The PBS was removed and 0.5 mL of 4% paraformaldehyde solution [a 4% paraformaldehyde solution in PBS was made fresh each time from a 16% stock solution (Thermo Fisher Scientific)] was added in each well and cells were incubated for 30 min. The paraformaldehyde was removed and cells were washed 3×2 mL PBS per well. 1 mL of PBS or HEPES was added to each well.
(§3) Before analysis, cells were incubated at 37° C. in the dark for the period designated. Samples were analysed directly without any further washing step. For live cell labelling cells were seeded, plated in a similar way, into a similar multi-well dish for optimal optical performance and could be used across all microscope platforms.
(§4) This basic protocol was the standard for testing the patterns of AAQ agents at 20 μM, compared to 20 μM of DRAQ5 as the benchmark reference (both in terms of cellular location and ability to detect the red fluorescence).
Low resolution wide-field fluorescence microscopy was used to evaluate cell labelling in fixed human osteosarcoma U-2 OS cells. The system was an Axiovert 100 microscope (Carl Zeiss, Welwyn Garden City, UK) ×10 0.3 NA air objective lens and an ORCA-ER CCD camera (Hamamatsu, Reading, UK). Illumination was controlled by a shutter in front of the transmission lamp. Image capture was controlled using Metamorph software. This evaluates the ability of the compounds to label cellular compartments without active uptake or efflux prohibiting delivery into the given cell. Image collection was performed after 1 h of exposure to probes in PBS. The calibration bar represents 50 μm.

A549 live cells = experiment: Loading of A549 live cells, wide-field fluorescence microscopy; type: cell-based, human; details: 20 μM, 30 min incubation, FIG. 3
Method: as §3, §4
Low resolution wide-field fluorescence microscopy was used to evaluate cell uptake and localisation of the probe compounds. The system was an Axiovert 100 microscope (Carl Zeiss, Welwyn Garden City, UK) ×10 0.3 NA air objective lens and an ORCA-ER CCD camera (Hamamatsu, Reading, UK). Illumination was controlled by a shutter in front of the transmission lamp. Image capture was controlled using Metamorph software. Human non-small cell lung cancer A549 cell line was used as the cell model to determine whether variation of the probe loading and localisation occurred in cell population sustaining a “side population” (SP) (Smith P J, Wiltshire M, Chappell S C, Cosentino L, Burns P A, Pors K, Errington R J. Kinetic analysis of intracellular Hoechst 33342—DNA interactions by flow cytometry: misinterpretation of side population status? Cytometry A 2013; 83:161-9) with a known capacity to efflux xenobiotic molecules, including the DNA dye Hoechst 33342.
Cells were incubated for 30 min with each compound and then images were collected at a 30 ms exposure time using low resolution wide-field fluorescence microscopy. Using an Axiovert 100 microscope (Carl Zeiss, Welwyn Garden City, UK) ×10 0.3 NA air objective lens and an ORCA-ER CCD camera (Hamamatsu, Reading, UK). Illumination was controlled by a shutter in front of the transmission lamp. Image capture was controlled using Metamorph software. The calibration bar represents 50 μm.

[3] = solution: Aldefluor buffer with verapamil

| fluorescence emission, 540 nm (Ex in PBS) [1] | fluorescence emission, λ1 nm (Ex in HEPES) [1] | fluorescence emission, λ1 nm (Ex in PBS) [1] | peak excitation wavelength [1] | IC50 (A549) | IC50 (MCF7) | SMILES | other results |
| --- | --- | --- | --- | --- | --- | --- | --- |
| 712 nm | 726 nm | 684 nm |  |  |  | COC(CNC(=O)CCNc1ccc(NCCC(=O)NCC(OC)OC)c2c1C(=O)c1c(O)ccc(O)c1C2=O)OC [BST-104, 3,3′-(5,8-dihydroxy-9,10-dioxo-9,10-dihydroanthracene-1,4diyl)bis(azanediyl)bis(N-(2,2-dimethoxyethyl)propanamide)] |  |
|  | 740 nm | 747.5 nm | 584 nm |  |  | COC(CCCCNc1ccc(NCCCCC(OC)OC)c2c1C(=O)c1c(O)ccc(O)c1C2=O)OC [BST-100, 1,4-Bis(5,5-dimethoxypentylamino)-5,8-dihydroxyanthracene-9,10-dione] | subcellular localisation by CLSM (U-2 OS cells): low levels of probe in the perinuclear region, with probable overload in Golgi body and large vesicles |
| 670 nm | 663 nm | 661 nm | 585 nm | > 100000 nM | 1750 nM | COC(CNC(=O)CCNc1ccc(NCCC(=O)NCC(OC)OC)c2c1C(=O)c1ccccc1C2=O)OC [BST-102, 3,3′-(9,10-Dioxo-9,10-dihydroanthracene-1,4-diyl)bis(azanediyl)bis(N-(2,2-dimethoxyethyl)propanamide)] |  |
|  |  |  |  | 17500 nM | 1660 nM | COC(CCCCNc1ccc(NCCN(C)C)c2c1C(=O)c1c(O)ccc(O)c1C2=O)OC [BST-107, 1-(5,5-Dimethoxypentylamino)-4-(2-(dimethylamino)ethylamino)-5,8-dihydroxyanthracene-9,10-dione] |  |
| 684 nm | 684 nm | 684 nm | 610 nm | 38200 nM | 1800 nM | COC(CC(=O)NCCNc1ccc(NCCN(C)C)c2c1C(=O)c1c(O)ccc(O)c1C2=O)OC [BST-111, N-(2-(4-(2-(Dimethylamino)ethylamino)-5,8-dihydroxy-9,10-dioxo-9,10-dihydroanthracen-1-ylamino)ethyl)-3,3-dimethoxypropanamide] | Median (fluorescence, uptake) (A549 cells; [3]): 74.94; % ile (25) (A549 cells; [3]): 64.64; Median (fluorescence, uptake) (A549 cells; solution: media): 72.42; % ile (25) (A549 cells; solution: media): 62.72; fluorescence brightness / background in fixed cells [2]: very high background fluorescence; staining pattern in fixed cells [2]: cytoplasmic staining and heterogeneity on labelling of mitotic figures; specific feature of localisation by CLSM (U-2 OS cells): mainly loaded in the nuclear compartment; subcellular localisation by CLSM (U-2 OS cells): strong nuclear uptake and perinuclear staining, with possible ER accumulation; staining pattern in live cells (A549 live cells): greater contrast and diffuse cellular staining |
|  | 680 nm |  |  |  |  | COC(CN(CCNc1ccc(NCCN(Cc2ccccc2)CC(OC)OC)c2c1C(=O)c1c(O)ccc(O)c1C2=O)Cc1ccccc1)OC [BST-202, 1,4-bis((2-(benzyl(2,2-dimethoxyethyl)amino)ethyl)amino)-5,8-dihydroxyanthracene-9,10-dione] |  |
|  |  |  |  | 50 nM | 28 nM | COc1cccc2c1C(=O)c1c(O)c3c(c(O)c1C2=O)C[C@@](O)(C(=O)CO)C[C@@H]3O[C@H]1C[C@H](N)[C@H](O)[C@H](C)O1 [Doxorubicin, doxorubicin, reference compound] |  |
| 684 nm | 684 nm | 690.5 nm |  |  |  | COC(CN(C)CCNc1ccc(NCCN(C)CC(OC)OC)c2c1C(=O)c1c(O)ccc(O)c1C2=O)OC [BST-201, 1,4-bis((2-((2,2-dimethoxyethyl)(methyl)amino)ethyl)amino)-5,8-dihydroxyanthracene-9,10-dione] | staining pattern in live cells (A549 live cells): perinuclear accumulation |

| SMILES | fluorescence emission, 540 nm (Ex in PBS) [1] | fluorescence emission, λ1 nm (Ex in HEPES) [1] | fluorescence emission, λ1 nm (Ex in PBS) [1] | peak excitation wavelength [1] | IC50 (A549) | IC50 (MCF7) | other results |
| --- | --- | --- | --- | --- | --- | --- | --- |
| CN(C)CCNc1ccc(O)c2c1C(=O)c1c(O)ccc(NCCN(C)C)c1C2=O [DRAQ5, reference compound] | 635 nm | >665 nm | >665 nm |  |  |  | Median (fluorescence, uptake) (A549 cells; solution: media): 217.4; % ile (25) (A549 cells; solution: media): 191.27 |
